Assay results as given in US9926297B2, “Bicyclic AZA compounds as muscarinic M1 receptor and/or M4 receptor agonists” (Heptares Therapeutics Limited, priority 2014, dated 2018).

What was measured:
[1] = target: T1, human muscarinic M4 receptor (Homo sapiens, UniProt P08173); test: Alphascreen Surefire phospho-ERK1/2 functional assay, M4; type: cell-based; conditions: for EC50: CHO cells stably expressing human M4, phospho-ERK1/2, * = variable results, read-out: pEC50 M4 (converted); for Emax: CHO, read-out: % Emax cf. ACh, M4, CHO cells stably expressing human M4, relative to ACh
T1 construct: expressed in transfected cells
T1 sequence (P08173 1-479): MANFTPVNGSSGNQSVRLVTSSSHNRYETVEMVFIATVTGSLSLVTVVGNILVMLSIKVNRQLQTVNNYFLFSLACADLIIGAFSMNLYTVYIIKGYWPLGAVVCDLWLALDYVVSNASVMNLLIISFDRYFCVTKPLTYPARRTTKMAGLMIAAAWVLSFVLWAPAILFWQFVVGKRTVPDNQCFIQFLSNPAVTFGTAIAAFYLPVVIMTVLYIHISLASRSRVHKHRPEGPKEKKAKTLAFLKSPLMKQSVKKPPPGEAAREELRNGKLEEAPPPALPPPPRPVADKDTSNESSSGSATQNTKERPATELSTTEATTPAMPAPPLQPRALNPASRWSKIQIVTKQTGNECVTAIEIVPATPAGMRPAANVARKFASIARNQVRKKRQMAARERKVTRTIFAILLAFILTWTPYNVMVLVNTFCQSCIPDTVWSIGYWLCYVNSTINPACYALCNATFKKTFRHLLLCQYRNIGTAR

[2] = target: T2, human muscarinic M1 receptor (Homo sapiens, UniProt P11229); test: Alphascreen Surefire phospho-ERK1/2 functional assay, M1; type: cell-based; conditions: for EC50: CHO cells stably expressing human M1, phospho-ERK1/2, * = variable results, read-out: pEC50 M1 (converted); for Emax: CHO, read-out: % Emax cf. ACh, M1, CHO cells stably expressing human M1, relative to ACh
T2 sequence (P11229 1-460): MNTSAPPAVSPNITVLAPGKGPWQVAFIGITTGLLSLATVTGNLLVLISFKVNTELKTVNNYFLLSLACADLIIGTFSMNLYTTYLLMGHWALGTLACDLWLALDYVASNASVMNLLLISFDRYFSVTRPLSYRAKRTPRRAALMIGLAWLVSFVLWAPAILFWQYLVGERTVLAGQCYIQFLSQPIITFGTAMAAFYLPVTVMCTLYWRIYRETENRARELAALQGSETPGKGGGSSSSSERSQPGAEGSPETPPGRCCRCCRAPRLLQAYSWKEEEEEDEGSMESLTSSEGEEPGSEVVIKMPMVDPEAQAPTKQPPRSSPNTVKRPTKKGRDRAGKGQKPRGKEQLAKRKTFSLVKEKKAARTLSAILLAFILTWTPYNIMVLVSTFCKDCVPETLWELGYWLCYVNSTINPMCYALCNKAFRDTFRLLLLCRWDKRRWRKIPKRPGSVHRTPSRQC

EC50 [1]	Emax [1]	EC50 [2]	Emax [2]	SMILES
126 nM	45%	> 20000 nM	10%	CCOC(=O)N1CCC2(CC(N3CCC(N4CC[C@@H](F)C4)CC3)C2)C1 (single isomer, unassigned) [2-98 Isomer 2]
158 nM	54%	> 20000 nM	18%	CCOC(=O)N1CCC2(CC(N3CCC(N4CC[C@H](F)C4)CC3)C2)C1 (single isomer, unassigned) [2-99 Isomer 2]
251 nM	63%	> 20000 nM	7%	CCOC(=O)N1CCC2(CC(N3CCC(N4C(=O)CCC4=O)CC3)C2)C1 (single isomer, unassigned) [2-112 Isomer 2, ethyl 2-[4-(2,5-dioxopyrrolidin-1-yl)piperidin-1-yl]-6-azaspiro[3.4]octane-6-carboxylate]
15.8 nM	113%	126 nM	100%	CCOC(=O)N1CCC2(CC(N3CCC(N4C(=O)CC[C@H]4C)CC3)C2)C1 (single isomer, unassigned) [2-113 Isomer 2]
7.94 nM	114%	126 nM	103%	CCOC(=O)N1CCC2(CC(N3CCC(N4C(=O)CC[C@H]4CC)CC3)C2)C1 (single isomer, unassigned) [2-114 Isomer 2]
25.1 nM	78%	200 nM	68%	CCOC(=O)N1CCC2(CC(N3CCC(N4C(=O)CC[C@@H]4C)CC3)C2)C1 (single isomer, unassigned) [2-115 Isomer 2]
6.31 nM	103%	63.1 nM	109%	CCOC(=O)N1CCC2(CC(N3CCC(N4C(=O)CC[C@@H]4CC)CC3)C2)C1 (single isomer, unassigned) [2-116 Isomer 2]
126 nM	84%	> 20000 nM	33%	CCOC(=O)N1CCC2(CC(N3CCC(N4C(=O)OC[C@H]4C)CC3)C2)C1 (single isomer, unassigned) [2-118 Isomer 2]
200 nM	60%	1000 nM	31%	CCOC(=O)N1CCC2(CC(N3CCC(N4C(=O)OC[C@@H]4C)CC3)C2)C1 (single isomer, unassigned) [2-121 Isomer 2]
158 nM	60%	1000 nM	59%	CCOC(=O)N1CCC2(CC(N3CCC(N4C(=O)OC[C@@H]4CC)CC3)C2)C1 (single isomer, unassigned) [2-122 Isomer 2]
316 nM	81%	3980 nM	32%	CCOC(=O)N1CCC2(CC(N3CCC(N4CCN(C)C4=O)CC3)C2)C1 (single isomer, unassigned) [2-125 Isomer 2, ethyl 2-[4-(3-methyl-2-oxoimidazolidin-1-yl)piperidin-1-yl]-6-azaspiro[3.4]octane-6-carboxylate]

The next lines start with the compound.

SMILES	EC50 [1]	Emax [1]	EC50 [2]	Emax [2]
CCOC(=O)N1CCC2(CC(N3CCC([C@@H]4CCCN4CCOC)CC3)C2)C1 (single isomer, unassigned) [2-71 Isomer 2]	126 nM	56%	5010 nM	39%
CCOC(=O)N1CCC2(CC(N3CCC([C@@H]4CCCN4CC(=O)N(C)C)CC3)C2)C1 (single isomer, unassigned) [2-73 Isomer 2]	316 nM	43%	> 20000 nM	14%
CCOC(=O)N1CCC2(CC(N3CCC([C@@H]4CCCN4c4ncccn4)CC3)C2)C1 (single isomer, unassigned) [2-81 Isomer 2]	63.1 nM	33%	> 20000 nM	12%
CCOC(=O)N1CCC2(CC(N3CCC([C@@H]4CCCN4c4nncs4)CC3)C2)C1 (single isomer, unassigned) [2-83 Isomer 2]	10 nM	100%	3980 nM	55%
CCOC(=O)N1CCC2(CC(N3CCC(N4CCC[C@H]4C(=O)NC)CC3)C2)C1 (single isomer, unassigned) [2-85 Isomer 2]	> 20000 nM	3%	2510 nM	66%
CCOC(=O)N1CCC2(CC(N3CCC(N4CC(F)(F)C[C@H]4C(=O)NC)CC3)C2)C1 (single isomer, unassigned) [2-93 Isomer 2]	> 20000 nM	3%	> 20000 nM	7%
CCOC(=O)N1CCC2(CC(N3CCC(N4CC(F)(F)C[C@H]4C(=O)N(C)C)CC3)C2)C1 (single isomer, unassigned) [2-94 Isomer 2]	6760 nM	80%	> 20000 nM	7%
CCOC(=O)N1CCC2(CC(N3CCC(N4CCC[C@H]4C(F)(F)F)CC3)C2)C1 (single isomer, unassigned) [2-101 Isomer 2]	631 nM	98%	10000 nM	70%
CCOC(=O)N1CCC2(CC(N3CCC(N4CC5CC5C4)CC3)C2)C1 (single isomer, unassigned) [2-105 Isomer 2, ethyl 2-[4-(3-azabicyclo[3.1.0]hex-3-yl)piperidin-1-yl]-6-azaspiro[3.4]octane-6-carboxylate]	200 nM	38%	> 20000 nM	26%
CCOC(=O)N1CCC2(CC(N3CCC(N4C(=O)OC[C@H]4CC)CC3)C2)C1 (single isomer, unassigned) [2-119 Isomer 2]	126 nM	84%	2510 nM	85%
CCOC(=O)N1CCC2(CC(N3CCC(N4C(=O)OC[C@H]4C(C)C)CC3)C2)C1 (single isomer, unassigned) [2-120 Isomer 2]	316 nM	87%	398 nM	96%
CCOC(=O)N1CCC2(CC(N3CCC(N4CCCC4c4ccn[nH]4)CC3)C2)C1 (single isomer, unassigned) [2-126 Isomer 2, ethyl 2-{4-[2-(1H-pyrazol-5-yl)pyrrolidin-1-yl]piperidin-1-yl}-6-azaspiro[3.4]octane-6-carboxylate]	79.4 nM	60%	> 20000 nM	15%
CCOC(=O)N1CCC2(CC(N3CCC(N4CCCC4c4ccon4)CC3)C2)C1 (single isomer, unassigned) [2-127 Isomer 2, ethyl 2-{4-[2-(1,2-oxazol-3-yl)pyrrolidin-1-yl]piperidin-1-yl}-6-azaspiro[3.4]octane-6-carboxylate]	10 nM	72%	> 20000 nM	11%
CCOC(=O)N1CCC2(CC(N3CCC(N4CCCC4c4nnn[nH]4)CC3)C2)C1 (single isomer, unassigned) [2-128 Isomer 2, ethyl 2-{4-[2-(1H-tetrazol-5-yl)pyrrolidin-1-yl]piperidin-1-yl}-6-azaspiro[3.4]octane-6-carboxylate]	1580 nM	104%	10000 nM	89%
CCOC(=O)N1CCC2(CC(N3CCC(N4CCCC4c4nnn(C)n4)CC3)C2)C1 (single isomer, unassigned) [2-129 Isomer 2, ethyl 2-{4-[2-(2-methyl-2H-tetrazol-5-yl)pyrrolidin-1-yl]piperidin-1-yl}-6-azaspiro[3.4]octane-6-carboxylate]	100 nM	55%	> 20000 nM	12%
